These results are taken from patent publication US4758557A, “Cephalosporin derivatives and bactericides containing the same” (Meiji Seika Kaisha, Ltd., priority 1985, dated 1988).

Structures are written as SMILES. Converted amounts (≈) assume the structure as drawn. Like-named read-outs stand apart in the source and are kept apart here.

Holding throughout (assay): MIC in agar plate culture-dilution assay
Assay type in all cases: cell-based

Assay [1] relates to Serratia marcescens No. 1. The text has this: (§1) The compounds of the formula (I) and salts thereof of the present invention are new, and have high and broad antibacterial activity capable of inhibiting the growth of pathogenic microorganisms of a broad range including gram-positive and gram-negative bacteria. In order to show the usability of the compounds of the formula (I), the antibacterial activity of some typical compounds of the formula (I) was actually measured, and the results are given in the following Table-1.
(§2) MIC in agar plate culture-dilution assay (Y/ml)

Assay [2] relates to Pseudomonas aeruginosa IAM-1007. The conditions noted are these: IAM1007.
Source text: as §1, §2

For assay [3], the system named is Bacillus subtilis ATCC 6633. As to conditions: ATCC6633.
Source text: as §1, §2

Assay [4] deals with Pseudomonas maltophilia M-0627. As to conditions: Stenotrophomonas maltophilia, M0627.
Source text: as §1, §2

Assay [5] has as its system Staphylococcus aureus Smith (1).
Source text: as §1, §2

Assay [6] relates to Pseudomonas aeruginosa E-2. The conditions noted are these: E2.
Source text: as §1, §2

Assay [7] concerns Klebsiella pneumoniae GN-69. As to conditions: GN69.
Source text: as §1, §2

Assay [8] has as its system Citrobacter freundii GN-346. The conditions noted are these: GN346.
Source text: as §1, §2

Assay [9] concerns Pseudomonas aeruginosa M-0148. The conditions noted are these: M0148.
Source text: as §1, §2

For the next assay, the system named is Proteus rettgeri GN-624. The conditions noted are these: Providencia rettgeri, GN624.
Source text: as §1, §2

Assay [10] concerns Staphylococcus aureus 209P JC-1.
Source text: as §1, §2

The subject of assay [11] is Enterobacter cloacae GN-7471. The conditions noted are these: GN7471.
Source text: as §1, §2

Another assay relates to Proteus vulgaris GN-76. The conditions noted are these: GN76.
Source text: as §1, §2

In assay [12] the test system is Escherichia coli NIHJ JC-2. As to conditions: NIHJJC2.
Source text: as §1, §2

Setting [13] is: Serratia marcescens No. 1, agar plate culture-dilution, read-out: MIC.
[14] abbreviates: Pseudomonas aeruginosa IAM-1007, agar plate culture-dilution, read-out: MIC.
[15] abbreviates: Bacillus subtilis ATCC 6633, agar plate culture-dilution, read-out: MIC.
[16] abbreviates: Pseudomonas maltophilia M-0627, agar plate culture-dilution, read-out: MIC.
Where [17] appears, read: Staphylococcus aureus Smith (1), agar plate culture-dilution, read-out: MIC.
Setting [18] is: Pseudomonas aeruginosa E-2, agar plate culture-dilution, read-out: MIC.
Where [19] appears, read: Klebsiella pneumoniae GN-69, agar plate culture-dilution, read-out: MIC.
[20] abbreviates: Citrobacter freundii GN-346, agar plate culture-dilution, read-out: MIC.
[21] abbreviates: Pseudomonas aeruginosa M-0148, agar plate culture-dilution, read-out: MIC.
Setting [22] is: Proteus rettgeri GN-624, agar plate culture-dilution, read-out: MIC.
Where [23] appears, read: Staphylococcus aureus 209P JC-1, agar plate culture-dilution, read-out: MIC.
Setting [24] is: Enterobacter cloacae GN-7471, agar plate culture-dilution, read-out: MIC.
[25] abbreviates: Proteus vulgaris GN-76, agar plate culture-dilution, read-out: MIC.

As to `Nc1nc(C(NC(=O)c2cc(=O)c(O)cn2O)C(=O)N[C@@H]2C(=O)N3C(C(=O)[O-])=C(CSc4cc[n+](CC(=O)O)c5c4CCC5)CS[C@H]23)cs1` (stereo partly drawn) [Example 17, (6R,7R)7-[(RS)2-(2-Aminothiazol-4-yl)-2-(1,5-dihydroxy-4-pyridone-2-carboxamido)acetamido]-3-(2,3-cyclopenteno-1-carboxylmethylpyridinium-4-yl)-thiomethyl-ceph-3-em-4-carboxylate], the MIC in [1] (setting [13]) was 0.2 µg/mL (≈ 0.274 µM); in assay [2] (setting [14]), 0.05 µg/mL (≈ 0.0685 µM); in assay [3] (setting [15]), 3.13 µg/mL (≈ 4.29 µM); in [4] (setting [16]) it was 6.25 µg/mL (≈ 8.56 µM); in [5] (setting [17]), 3.13 µg/mL (≈ 4.29 µM); in assay [6] (setting [18]), 0.1 µg/mL (≈ 0.137 µM). Besides, the minimal inhibitory concentration (MIC) is 0.1 µg/mL (≈ 0.137 µM) in assay [7] (setting [19]); 0.78 µg/mL (≈ 1.07 µM) in assay [8] (setting [20]); 1.56 µg/mL (≈ 2.14 µM) in assay [9] (setting [21]); 0.1 µg/mL (≈ 0.137 µM) in the assay on Proteus rettgeri GN-624 (setting [22]); 3.13 µg/mL (≈ 4.29 µM) in [10] (setting [23]); 0.78 µg/mL (≈ 1.07 µM) in assay [11] (setting [24]). The MIC in the assay with Proteus vulgaris GN-76 (setting [25]) is 0.2 µg/mL (≈ 0.274 µM); in assay [12], under 0.025 µg/mL.
With `Nc1nc(C(NC(=O)c2cc(=O)c(O)cn2O)C(=O)N[C@@H]2C(=O)N3C(C(=O)O)=C(CSc4ccnc5c4CCC5)CS[C@H]23)cs1` (some centres unmarked) [Example 15], the MIC in assay [1] (setting [13]) was 0.39 µg/mL (≈ 0.581 µM); in [2] (setting [14]), 0.2 µg/mL (≈ 0.298 µM); in [3] (setting [15]), 3.13 µg/mL (≈ 4.66 µM); in assay [4] (setting [16]) it was 0.78 µg/mL (≈ 1.16 µM); in [5] (setting [17]), 3.13 µg/mL (≈ 4.66 µM); in assay [6] (setting [18]), under 0.025 µg/mL. In addition, the MIC is 0.05 µg/mL (≈ 0.0744 µM) in assay [7] (setting [19]); 0.2 µg/mL (≈ 0.298 µM) in assay [8] (setting [20]); 0.2 µg/mL (≈ 0.298 µM) in assay [9] (setting [21]); 0.2 µg/mL (≈ 0.298 µM) in the assay on Proteus rettgeri GN-624 (setting [22]); 1.56 µg/mL (≈ 2.32 µM) in assay [10] (setting [23]); 0.78 µg/mL (≈ 1.16 µM) in assay [11] (setting [24]). Moreover, the MIC (with Proteus vulgaris GN-76 (setting [25]); in assay [12]) was 0.1 µg/mL (≈ 0.149 µM) throughout.
As for `Nc1nc(C(NC(=O)c2cc(=O)c(O)cn2O)C(=O)N[C@@H]2C(=O)N3C(C(=O)O)=C(CSc4nc5ccccc5s4)CS[C@H]23)cs1` (stereo partly drawn) [Example 26, (6R,7R)7-[(RS)2-(2-Aminothiazol-4-yl)-2-(1,5-dihydroxy-4-pyridone-2-carboxamido)acetamido]-3-(benzothiazol-2-yl)thiomethyl-ceph-3-em-4-carboxylic acid], the minimum inhibitory concentration (MIC) in assay [1] (setting [13]) was 0.78 µg/mL (≈ 1.13 µM); in [2] (setting [14]), 0.2 µg/mL (≈ 0.291 µM); in assay [3] (setting [15]), 3.13 µg/mL (≈ 4.55 µM); in [4] (setting [16]), 3.13 µg/mL (≈ 4.55 µM); in [5] (setting [17]) it was 3.13 µg/mL (≈ 4.55 µM); in assay [6] (setting [18]), 0.05 µg/mL (≈ 0.0727 µM). Moreover, the MIC in [7] (setting [19]) worked out at 0.05 µg/mL (≈ 0.0727 µM); in [8] (setting [20]), 0.39 µg/mL (≈ 0.567 µM); in assay [9] (setting [21]) it was 0.2 µg/mL (≈ 0.291 µM); in the assay on Proteus rettgeri GN-624 (setting [22]) it was 3.13 µg/mL (≈ 4.55 µM); in assay [10] (setting [23]), 3.13 µg/mL (≈ 4.55 µM); in assay [11] (setting [24]), 1.56 µg/mL (≈ 2.27 µM). Besides, the values for the minimal inhibitory concentration (MIC) (in the assay with Proteus vulgaris GN-76 (setting [25]); in assay [12]) were 0.2 µg/mL (≈ 0.291 µM) and 0.1 µg/mL (≈ 0.145 µM), respectively.
For the compound `CC(C)(O/N=C(\C(=O)N[C@@H]1C(=O)N2C(C(=O)[O-])=C(C[n+]3ccccc3)CS[C@H]12)c1csc(N)n1)C(=O)O` [B, ceftazidime, reference compound], the minimal inhibitory concentration (MIC) in assay [1] (Serratia marcescens, NO.1) is under 0.025 µg/mL; in assay [2] (Pseudomonas aeruginosa), 1.56 µg/mL (≈ 2.85 µM); in assay [3] (Bacillus subtilis) it was 6.25 µg/mL (≈ 11.4 µM); in assay [4], 50 µg/mL (≈ 91.5 µM); in [5] (Staphylococcus aureus) it was 3.13 µg/mL (≈ 5.73 µM); in assay [6] (Pseudomonas aeruginosa), 1.56 µg/mL (≈ 2.85 µM). For the same compound, the MIC in assay [7] (Klebsiella pneumoniae) was 0.1 µg/mL (≈ 0.183 µM); in assay [8] (Citrobacter freundii) it was 0.78 µg/mL (≈ 1.43 µM); in assay [9] (Pseudomonas aeruginosa), 3.13 µg/mL (≈ 5.73 µM); in the assay with Proteus rettgeri GN-624, 0.39 µg/mL (≈ 0.714 µM); in assay [10] (Staphylococcus aureus, 209P) it was 3.13 µg/mL (≈ 5.73 µM); in assay [11] (Enterobacter cloacae), 3.13 µg/mL (≈ 5.73 µM). For the same compound, the results for the MIC (against Proteus vulgaris GN-76 (Proteus vulgaris); in [12]) were 0.05 µg/mL (≈ 0.0915 µM) and 0.2 µg/mL (≈ 0.366 µM), respectively.
